# Measured values from patent publication US5134168A, “Phenoxy and phenylthio, amino substituted benzocycloalkane derivatives in the treatment and prevention of drug-resistant protozoal infections” (Merrell Dow Pharmaceuticals Inc., priority 1991, dated 1992).
# Key:
# [1] = tested on: P. falciparum (FCR3); assay: Enhancement of chloroquine potency: [3H]-hypoxanthine incorporation into chloroquine-resistant P. falciparum (FCR3) in vitro; type: cell-based, Plasmodium falciparum; conditions: chloroquine IC50 with compound at 200 ng/ml as percent of chloroquine-alone IC50
# [2] = tested on: chloroquine-resistant P. falciparum (FCR3); assay: Isobologram analysis of synergism with chloroquine, hypoxanthine incorporation (FIG. 1); type: cell-based, Plasmodium falciparum; conditions: IC50 for hypoxanthine incorporation
# Description: FIG. 1 illustrates the synergism of 1-(3,4-dichloro-phenoxy)-2,3-dihydro-N,N-dimethyl-1H-Indene-2-methanamine and chloroquine against chloroquine-resistant P. falciparum (FCR3). Isobologram analysis was carried out according to the method of Martin, et al., (1987) Science 235, 899-901 and Berenbaum, (1978) Journal of Infectious Diseases 137, 122-130. […] The X-axis is the IC50 concentration of drug which inhibits hypoxanthine incorporation by 50%) of chloroquine in the absence or presence of 1-(3,4-dichlorophenoxy)-2,3-dihydro-N,N-dimethyl-1H-Indene-2-methanamine while the Y-axis is the IC50 for 1-(3,4-dichlorophenoxy)-2,3-dihydro-N,N-dimethyl-1H-Indene-2-methanamine in the absence or presence of chloroquine.
# P. falciparum (clone D6, chloroquine-sensitive; strain FCR3, chloroquine-resistant; and clone W2, multidrug-resistant) was grown in vitro by the method of Trager and Jensen, (1976) Science 193, 673-675.
# [3] = tested on: P. falciparum; conditions: recently reported; by interfering with riboflavin metabolism; cited from earlier work
SMILES,Percent of IC50 of Chloroquine Alone [1] [%],also measured
"CN(C)C[C@H]1Cc2ccccc2[C@H]1Sc1ccccc1.O=C(O)C(=O)O (relative stereo) [1 0 0 -- --CH2 -- CH3 CH3 S cis, cis-2,3-dihydro-N,N-dimethyl-1-(phenylthio)-1H-indene-2-methanamine, ethanedioate]",14,
"CNC[C@@H]1Cc2ccccc2[C@@H]1Oc1ccccc1C(F)(F)F (relative stereo) [1 0 1 O--CF3 --CH2 -- CH3 H O cis, CIS-2,3-dihydro-N-methyl-1-(2-trifluoromethylphenoxy)-H-indene-2-methanamine ethanedioate (1:1)]",22,
"CNC[C@H]1Cc2ccccc2[C@H]1Oc1ccccc1OC (relative stereo) [1 0 1 O--OCH3 --CH2 -- CH3 H O --, cis-2,3-dihydro-1-(2-methoxyphenoxy)-N-methyl-1H-indene-2-methanamine]",13,
"CN(C)C[C@H]1Cc2ccccc2[C@H]1Oc1ccc(C(F)(F)F)cc1.Cl (relative stereo) [1 0 1 p-CF3 --CH2 -- CH3 CH3 O cis, cis-2,3-dihydro-N,N-dimethyl-1-[4-(trifluoromethyl)-phenoxy]-1H-indene-2-methanamine hydrochloride]",55,
"CN(C)CC1Cc2ccccc2C1Oc1ccc(Cl)c(Cl)c1 (stereo not drawn) [1-(3,4-dichlorophenoxy)-2,3-dihydro-N,N-dimethyl-1H-Indene-2-methanamine]",,synergism of the combination with chloroquine [2]: highly synergistic
CN(C)CCC=C1c2ccccc2CCc2ccccc21 [amitryptyline],,P. falciparum growth [3]: suppress P. falciparum growth
CN(C)CCCN1c2ccccc2CCc2ccccc21 [imipramine],,P. falciparum growth [3]: suppress P. falciparum growth

# Further lines, with some results ahead:
Percent of IC50 of Chloroquine Alone [1] [%],SMILES,also measured
68,"CN(C)C[C@@H]1Cc2ccccc2[C@@H]1Oc1ccc(Br)cc1 (relative stereo) [1 0 1 p-Br --CH2 -- CH3 CH3 O cis, CIS-1-(4-romophenoxy)-2,3-dihydro-N,N-dimethyl-1H-indene-2-methanamine ethanedioate]",
25,"CN(C)C[C@H]1Cc2ccccc2[C@H]1Oc1ccc2c(c1)OCO2.O=C(O)C(=O)O (relative stereo) [1 0 2 --OCH2 O-- --CH2 -- CH3 CH3 O cis, CIS 1-(1,3-benzodioxol-5-yloxy)-2,3-dihydro-N,N-dimethyl-1H-indene-2-methanamine ethanedioate (1:1)]",
43,"CN(C)C[C@H]1Cc2ccccc2[C@@H]1Oc1ccc(Cl)c(Cl)c1 (relative stereo) [1 0 2 m,p-(Cl)2 --CH2 -- CH3 CH3 O trans]",
75,"CN(C)C[C@@H]1Cc2ccccc2[C@H]1Oc1ccc2c(c1)OCO2.O=C(O)C(=O)O (relative stereo) [TRANS 1-(1,3-benzodioxol-5-yloxy)-2,3-dihydro-N,N-dimethyl-1H-indene-2-methanamine ethanedioate (1:1)]",
10,"CN(C)CC1Cc2ccccc2C1Oc1ccccc1 (stereo not drawn) [1 0 0 -- --CH2 -- CH3 CH3 O --, 2,3-dihydro-N,N-dimethyl-1-phenoxy-1H-indene-2-methanamine]",
